Molecules are shown by their SMILES. Values joined by “and” are separate entries in the source; they are usually repeats but may differ in a detail not shown here. Equal values may be shown once. Toxic doses and inconclusive results are not listed.

This assay has as its system L1210 leukemia ip in BDF1 mice, survival T/C. Put plainly: NCI In Vivo Anticancer Drug Screen. Data for tumor model L1210 Leukemia (intraperitoneal) in B6D2F1 (BDF1) mice. To be noted: endpoint: mean survival time, higher = longer survival. In outline: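 Tumor cells were implanted, animals were treated, and survival was followed. The result divides the treated measurement by the vehicle-control measurement.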

Where [1] appears, read: dose: 100.0 mg/kg/injection, schedule: Q01DX001 (ip), vehicle: saline.
Where [2] appears, read: dose: 200.0 mg/kg/injection, schedule: Q01DX001 (ip), vehicle: saline.
Where [3] appears, read: dose: 400.0 mg/kg/injection, schedule: Q01DX001 (ip), vehicle: saline.
[4] abbreviates: dose: 100.0 mg/kg/injection, schedule: Q04DX003 (ip), vehicle: other.
[5] abbreviates: dose: 100.0 mg/kg/injection, schedule: Q01DX009 (ip), vehicle: Klucel (hydroxypropylcellulose) (HPC).
The mark [6] stands for this setting: dose: 100.0 mg/kg/injection, schedule: Q04DX003 (ip), vehicle: Klucel (hydroxypropylcellulose) (HPC).
The mark [7] stands for this setting: dose: 200.0 mg/kg/injection, schedule: Q01DX009 (ip), vehicle: Klucel (hydroxypropylcellulose) (HPC).
The mark [8] stands for this setting: dose: 200.0 mg/kg/injection, schedule: Q04DX003 (ip), vehicle: Klucel (hydroxypropylcellulose) (HPC).
[9] abbreviates: dose: 400.0 mg/kg/injection, schedule: Q01DX009 (ip), vehicle: Klucel (hydroxypropylcellulose) (HPC).
[10] abbreviates: dose: 400.0 mg/kg/injection, schedule: Q04DX003 (ip), vehicle: Klucel (hydroxypropylcellulose) (HPC).
The mark [11] stands for this setting: dose: 50.0 mg/kg/injection, schedule: Q01DX009 (ip), vehicle: saline.
Where [12] appears, read: dose: 100.0 mg/kg/injection, schedule: Q01DX009 (ip), vehicle: saline.

For the compound `CN=C(NC)N(C)/N=C/C(C)=N/N(C)C(=NC)NC`, the T/C (dose: 15.0 mg/kg/injection, schedule: Q01DX Z (ip), vehicle: methylcellulose (MC)) is 95 % of control; the T/C (dose: 30.0 mg/kg/injection, schedule: Q01DX Z (ip), vehicle: methylcellulose (MC)) was 101 % of control; the T/C (dose: 60.0 mg/kg/injection, schedule: Q01DX Z (ip), vehicle: methylcellulose (MC)) is 101 % of control; the T/C (dose: 60.0 mg/kg/injection, schedule: Q01DX Z (oral), vehicle: methylcellulose (MC)) is 104 % of control; the T/C (dose: 120.0 mg/kg/injection, schedule: Q01DX Z (oral), vehicle: methylcellulose (MC)) was 93 % of control; the T/C (dose: 240.0 mg/kg/injection, schedule: Q01DX Z (oral), vehicle: methylcellulose (MC)) is 91 % of control. The T/C reads like this: (dose: 480.0 mg/kg/injection, schedule: Q01DX Z (oral), vehicle: methylcellulose (MC)) 110 % of control; (dose: 720.0 mg/kg/injection, schedule: Q01DX Z (oral), vehicle: methylcellulose (MC)) 108 % of control.
`BrCC12CCC1(CBr)COC2` (stereo not given): the T/C is, setting by setting: under setting [1], 99 % of control; under setting [2], 103 % of control; under setting [3], 101 % of control.
`CSc1nc(N)c(N)c(SC)n1`: the T/C runs as follows: (dose: 16.0 mg/kg/injection, schedule: Q01DX Z (ip), vehicle: methylcellulose (MC)) 91 % of control; (dose: 31.0 mg/kg/injection, schedule: Q01DX Z (ip), vehicle: methylcellulose (MC)) 93 % of control; (dose: 62.0 mg/kg/injection, schedule: Q01DX Z (ip), vehicle: methylcellulose (MC)) 96 % of control; (dose: 100.0 mg/kg/injection, schedule: Q01DX001 (ip), vehicle: other) 102 % of control; under setting [4], 94 % of control; (dose: 125.0 mg/kg/injection, schedule: Q01DX Z (ip), vehicle: methylcellulose (MC)) 93 % of control. Besides, the T/C (dose: 200.0 mg/kg/injection, schedule: Q01DX001 (ip), vehicle: other) was 101 % of control; the T/C (dose: 200.0 mg/kg/injection, schedule: Q04DX003 (ip), vehicle: other) was 96 % of control; the T/C (dose: 400.0 mg/kg/injection, schedule: Q01DX001 (ip), vehicle: other) was 96 % of control; the T/C (dose: 400.0 mg/kg/injection, schedule: Q04DX003 (ip), vehicle: other) was 102 % of control.
With `O=[N+]([O-])c1cccc(N=P(c2ccccc2)(c2ccccc2)c2ccccc2)c1`, the T/C is 95 % of control under setting [5]; 117 % of control under setting [6]; 95 % of control under setting [7]; 95 % of control under setting [8]; 88 % of control under setting [9]; 88 % of control under setting [10].
In the case of `O=C(CN(CCO)CCO)c1ccc([N+](=O)[O-])cc1`, the T/C (dose: 75.0 mg/kg/injection, schedule: Q01DX001 (ip), vehicle: saline) is 101 % of control.
As for `COCCOC(C)C(=O)C(O)S(=O)(=O)O` (stereo not given), the T/C was 86 % of control (dose: 500.0 mg/kg/injection, schedule: Q01DX Z (oral), vehicle: saline) and 87 % of control (dose: 1000.0 mg/kg/injection, schedule: Q01DX Z (oral), vehicle: saline).
For `CCCCNC(C)(C)C(SS)c1ccc(C(F)(F)F)cc1` (stereo not given), the T/C is 96 % of control (dose: 25.0 mg/kg/injection, schedule: Q01DX009 (ip), vehicle: other); 98 % of control (dose: 25.0 mg/kg/injection, schedule: Q04DX003 (ip), vehicle: other); 94 % of control (dose: 50.0 mg/kg/injection, schedule: Q01DX009 (ip), vehicle: other); 93 % of control (dose: 50.0 mg/kg/injection, schedule: Q04DX003 (ip), vehicle: other); 98 % of control (dose: 100.0 mg/kg/injection, schedule: Q01DX009 (ip), vehicle: other); 86 % of control under setting [4].
Consider `S=P(N1CC1)(N1CC1)N1CC1.[Cl-].[Cl-].[NH2-].[NH2-].[Pt+4]`, for which the T/C by setting is: (dose: 1.8 mg/kg/injection, schedule: Q01DX009 (ip), vehicle: saline) 111 % of control and 103 % of control and 101 % of control; (dose: 2.7 mg/kg/injection, schedule: Q01DX009 (ip), vehicle: saline) 111 % of control and 116 % of control; (dose: 3.13 mg/kg/injection, schedule: Q01DX009 (ip), vehicle: Klucel (hydroxypropylcellulose) (HPC)) 150 % of control and 152 % of control; (dose: 4.1 mg/kg/injection, schedule: Q01DX009 (ip), vehicle: saline) 164 % of control [middle of 5 runs]; (dose: 6.25 mg/kg/injection, schedule: Q01DX009 (ip), vehicle: Klucel (hydroxypropylcellulose) (HPC)) 211 % of control and 166 % of control and 227 % of control; (dose: 6.25 mg/kg/injection, schedule: Q01DX009 (ip), vehicle: saline) 233 % of control [middle of 4 runs]. Moreover, the T/C runs as follows: (dose: 9.3 mg/kg/injection, schedule: Q01DX009 (ip), vehicle: saline) 200 % of control and 277 % of control; (dose: 12.5 mg/kg/injection, schedule: Q01DX009 (ip), vehicle: Klucel (hydroxypropylcellulose) (HPC)) 105 % of control and 92 % of control and 91 % of control; (dose: 12.5 mg/kg/injection, schedule: Q01DX009 (ip), vehicle: saline) 98 % of control and 103 % of control.
`Cc1ccc(C2CCCN(C)O2)cc1` (stereo not given): the T/C reads like this: under setting [1], 102 % of control; under setting [2], 101 % of control; under setting [3], 93 % of control.
For the compound `Cc1ncc(CO)c(C2NOCc3ccc(Cl)cc32)c1O` (stereo not given), the T/C (dose: 100.0 mg/kg/injection, schedule: Q04DX003 (ip), vehicle: acetone) was 104 % of control.
In the case of `COc1cc(-c2cc(-c3ccccc3)c3ccccc3n2)cc(OC)c1OC`, the T/C by setting is: under setting [5], 97 % of control; under setting [7], 100 % of control; under setting [9], 96 % of control.
In the case of `CC(C)(C)NC(=O)Nc1cccc(C(=O)O)c1`, the T/C runs as follows: under setting [5], 97 % of control; under setting [7], 109 % of control; under setting [9], 101 % of control.
Turning to `C#CCOCC1CNC(=O)O1` (stereo not given), the T/C reads like this: (dose: 25.0 mg/kg/injection, schedule: Q01DX009 (ip), vehicle: saline) 95 % of control; (dose: 25.0 mg/kg/injection, schedule: Q04DX003 (ip), vehicle: saline) 103 % of control; under setting [11], 96 % of control; (dose: 50.0 mg/kg/injection, schedule: Q04DX003 (ip), vehicle: saline) 105 % of control; under setting [12], 96 % of control; (dose: 100.0 mg/kg/injection, schedule: Q04DX003 (ip), vehicle: saline) 97 % of control. Moreover, the T/C (dose: 200.0 mg/kg/injection, schedule: Q01DX009 (ip), vehicle: saline) was 101 % of control; the T/C (dose: 200.0 mg/kg/injection, schedule: Q04DX003 (ip), vehicle: saline) was 100 % of control; the T/C (dose: 400.0 mg/kg/injection, schedule: Q01DX009 (ip), vehicle: saline) was 91 % of control; the T/C (dose: 400.0 mg/kg/injection, schedule: Q04DX003 (ip), vehicle: saline) is 105 % of control.
Regarding `C=CCCCCCCCC/C=N\NC(=O)c1ccc[n+](C)c1`, the T/C is 106 % of control under setting [11] and 100 % of control under setting [12].
Turning to `Nc1ccc(C(=O)O)cc1S(=O)(=O)O`, the T/C (dose: 100.0 mg/kg/injection, schedule: Q01DX001 (ip), vehicle: Klucel (hydroxypropylcellulose) (HPC)) is 102 % of control.
In the case of `CCOC(=O)c1c(-c2ccccc2)csc1N`, the T/C was 97 % of control (dose: 50.0 mg/kg/injection, schedule: Q04DX003 (ip), vehicle: saline with Tween-80); 94 % of control (dose: 100.0 mg/kg/injection, schedule: Q04DX003 (ip), vehicle: saline with Tween-80); 90 % of control (dose: 200.0 mg/kg/injection, schedule: Q04DX003 (ip), vehicle: saline with Tween-80).
Turning to `O=C(c1ccccc1)c1ccc(Br)s1`, the T/C runs as follows: under setting [6], 96 % of control; under setting [8], 97 % of control; under setting [10], 94 % of control.
Consider `Cc1ccc2c(ccc(/C=C\c3cc(C)c4cccnc4c3O)[n+]2C)c1`, for which, under “dose: 100.0 mg/kg/injection, schedule: Q01DX001 (ip), vehicle: carboxymethylcellulose (CMC)”, the T/C is 114 % of control.
